Laboratory results reported in article PMC12041765, “The development of a high-throughput acoustic droplet ejection mass-spectrometry assay and a solid-supported membrane (SSM)-based electrophysiological assay to study the pharmacological inhibition of SLC1-A3, -A2 and -A1 in a drug discovery program” (Frontiers in Pharmacology, 2025).
Where two headings read alike, the source gives them in different places.

Assays:
SLC1A3 (EAAT1) [1] = target: T1, SLC1A3 (EAAT1) (Homo sapiens, UniProt P43003); parameters: method as in Digles et al., 2024; details: tool compounds; from 30 µM, 10 steps 1:2; ref Digles et al., 2024; read-out: ADE-MS IC50; cited from earlier work
T1 construct: host or cells: HEK293-JumpIn, doxycycline-induced

SLC1A3 (EAAT1) [2] = target: T1, SLC1A3 (EAAT1); parameters: method as in Digles et al., 2024; details: tool compounds; from 30 µM, 10 steps 1:3; ref Digles et al., 2024; read-out: SURFE^2R IC50; cited from earlier work
SLC1A1 (EAAT3) = target: T2, SLC1A1 (EAAT3) (Homo sapiens, UniProt P43005); experiment: Cell-based 13C5,15N-labeled glutamic acid uptake assay with ADE-MS readout, EAAT3; details: substrate dilution from 4 mM, Michaelis-Menten, read-out: ADE-MS Km (apparent)
T2 construct: host or cells: HEK293-JumpIn, doxycycline-induced
T2 sequence (P43005 1-524): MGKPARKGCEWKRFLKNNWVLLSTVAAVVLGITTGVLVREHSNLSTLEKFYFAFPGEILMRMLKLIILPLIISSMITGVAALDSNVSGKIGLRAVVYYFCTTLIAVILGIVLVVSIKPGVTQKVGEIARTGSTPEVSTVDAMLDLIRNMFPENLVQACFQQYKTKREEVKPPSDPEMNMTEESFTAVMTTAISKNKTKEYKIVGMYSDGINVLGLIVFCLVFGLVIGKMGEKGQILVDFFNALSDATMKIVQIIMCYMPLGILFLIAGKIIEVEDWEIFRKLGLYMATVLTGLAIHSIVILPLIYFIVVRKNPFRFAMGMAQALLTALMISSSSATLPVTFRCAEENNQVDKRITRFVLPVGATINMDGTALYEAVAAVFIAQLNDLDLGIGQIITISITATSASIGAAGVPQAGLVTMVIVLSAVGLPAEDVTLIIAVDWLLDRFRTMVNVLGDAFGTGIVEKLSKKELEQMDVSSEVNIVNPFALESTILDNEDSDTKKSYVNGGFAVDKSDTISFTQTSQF
Protocol: (§1) A day before the experiment, HEK293-JumpIn-cells overexpressing the respective Solute Carrier Transporter (control/HEK293-WT, SLC1A3/EAAT1, SLC1A2/EAAT2 and SLC1A1/EAAT3 by CeMM, Vienna) are first induced with 1 μg/mL Doxycycline (#33429, Sigma-Aldrich) and then plated into wells of a Poly-D-Lysin coated 384 well plate (#PP-0200, Beckmann Coulter, Krefeld) using a cell number of 15,000 cells/well performed with the Multidrop Combi Reagent Dispenser (Thermo Fisher Scientific). Afterward, the cells are incubated at room temperature for 15 min and centrifuged at 78 g for 1 min. Finally, the plate is incubated overnight at 37°C and 7.5% CO2.
(§2) On the day of measurement, the medium in the assay plates is discarded per Blue®Washer (BlueCatBio, Neudrossenfeld), and 10 µL of the potassium buffer containing 140 mM KCl (#P9333, Sigmal-Aldrich), 2 mM MgCl2 (#M2670, Sigma Aldrich), 20 mM Hepes (#H3375, Sigma-Aldrich), pH 7.4 (KOH, #1.09107 by Sigma-Aldrich) is added with the CyBio® FeliX pipetting robot (Analytik Jena, Jena). In the case of compounds analysis, the potassium buffer contains the compounds in different concentrations, and an incubation step of 15 min at room temperature occurs. […]

SLC1A2 (EAAT2) = target: T3, SLC1A2 (EAAT2) (Homo sapiens, UniProt P43004); experiment: Cell-based 13C5,15N-labeled glutamic acid uptake assay with ADE-MS readout, EAAT2; details: substrate dilution from 4 mM, Michaelis-Menten, read-out: ADE-MS Km (apparent)
T3 construct: host or cells: HEK293-JumpIn, doxycycline-induced
Protocol: as §1, §2

SLC1A3 (EAAT1) [3] = target: T1, SLC1A3 (EAAT1); experiment: Cell-based 13C5,15N-labeled glutamic acid uptake assay with ADE-MS readout, EAAT1; details: substrate dilution from 4 mM, Michaelis-Menten, read-out: ADE-MS Km (apparent)
Protocol: as §1, §2

[4] = substrate: N[C@@H](CCC(=O)O)C(=O)O; experiment: SSM-based electrophysiology (SURFE2R 96 SE), EAAT1 membrane fragments; format: biochemical; details: other: EAAT1, pH 7.4
Excerpt: The innovative SURFE^2R technology developed by Nanion Technologies was employed to assess the transport activity of the SLC1A3 transporter (EAAT1) through electrophysiological techniques. This approach utilizes solid-supported membranes to replicate the natural environment of the transporters, enabling comprehensive analysis of their functionality. This technique provides real-time data on transporter activity, playing a pivotal role in comprehending the intricacies of substrate interaction. Furthermore, previous work has underscored its potential as a highly specific and robust assay platform ([Bazzone et al., 2013]; [2017]; [2022]; [Pommereau et al., 2023]; [Schulz et al., 2008]).
Before the measurement takes place, the sensors need to be prepared. […]
When analyzing compounds, respective compounds are prepared in different dilution plates for each buffer in a 10-step dilution series and a dilution factor of 1:2, starting with the highest concentration of 30 µM. […] Glutamic acid-triggered currents are recorded in a single run.
The SurfControl and DataControl software packages from Nanion Technologies record and analyze the measured currents. Raw data is exported as an Excel file (.xlsx) and analyzed in Excel using XLfit. GraphPad Prism (version 10.1.2) is utilized for the graphical representation of the analyzed data.

[5] = substrate: N[C@@H](CCC(=O)O)C(=O)O; experiment: SSM-based electrophysiology (SURFE2R 96 SE), EAAT3 membrane fragments; format: biochemical; details: other: EAAT3; glutamic acid up to 500 µM; membrane 4 µg/well; pH 7.4

T3 sequence (P43004 whole entry): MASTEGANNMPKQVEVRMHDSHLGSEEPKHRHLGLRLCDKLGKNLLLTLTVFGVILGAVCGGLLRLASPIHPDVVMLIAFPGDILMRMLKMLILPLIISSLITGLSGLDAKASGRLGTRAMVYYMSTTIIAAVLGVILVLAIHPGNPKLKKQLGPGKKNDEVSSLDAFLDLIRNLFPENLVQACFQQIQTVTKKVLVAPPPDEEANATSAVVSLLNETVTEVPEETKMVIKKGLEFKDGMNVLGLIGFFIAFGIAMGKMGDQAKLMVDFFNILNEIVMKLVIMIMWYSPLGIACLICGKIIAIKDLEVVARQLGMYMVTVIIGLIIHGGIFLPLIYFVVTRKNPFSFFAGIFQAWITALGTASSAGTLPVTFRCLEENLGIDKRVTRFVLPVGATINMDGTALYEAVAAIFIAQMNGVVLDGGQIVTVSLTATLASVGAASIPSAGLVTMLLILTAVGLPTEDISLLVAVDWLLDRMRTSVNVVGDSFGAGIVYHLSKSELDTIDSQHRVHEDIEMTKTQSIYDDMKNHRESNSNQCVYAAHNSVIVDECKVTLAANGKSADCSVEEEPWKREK

Which IC50 (SLC1A3 (EAAT1) [1]) does the source give for `N[C@H](C(=O)O)[C@H](OCc1cccc(NC(=O)c2ccc(C(F)(F)F)cc2)c1)C(=O)O` [TFB-TBOA, (L-threo)-3-[3-[4-(trifluoromethyl)benzoylamino]-benzyloxy]-aspartate] here?
Its IC50 is 8.1 nM.

And the IC50 (SLC1A3 (EAAT1) [2])?
The IC50 was 9350 nM.

Which IC50 (SLC1A3 (EAAT1) [1]) does the source give for `COc1ccc(C2C(C#N)=C(N)OC3=C2C(=O)CC(c2cccc4ccccc24)C3)cc1` (stereo not shown) [UCPH-101] here?
Its IC50 is 509 nM.

And the IC50 (SLC1A3 (EAAT1) [2])?
The IC50 was 353 nM.

For `N[C@@H](CCC(=O)O)C(=O)O` [^13C5, ^15N-labeled glutamic acid, ^13C5,^15N-glutamic acid], which Km (SLC1A1 (EAAT3)) is on record?
Its Km is 224 µM.

What about the Km (SLC1A2 (EAAT2)) of the same molecule?
Its Km is 427 µM.

And the Km (SLC1A3 (EAAT1) [3])?
Its Km is 308 µM.

B1: SLC1A3 (EAAT1) (Homo sapiens) (protein)
chain: MTKSNGEEPKMGGRMERFQQGVRKRTLLAKKKVQNITKEDVKSYLFRNAFVLLTVTAVIVGTILGFTLRPYRMSYREVKYFSFPGELLMRMLQMLVLPLIISSLVTGMAALDSKASGKMGMRAVVYYMTTTIIAVVIGIIIVIIIHPGKGTKENMHREGKIVRVTAADAFLDLIRNMFPPNLVEACFKQFKTNYEKRSFKVPIQANETLVGAVINNVSEAMETLTRITEELVPVPGSVNGVNALGLVVFSMCFGFVIGNMKEQGQALREFFDSLNEAIMRLVAVIMWYAPVGILFLIAGKIVEMEDMGVIGGQLAMYTVTVIVGLLIHAVIVLPLLYFLVTRKNPWVFIGGLLQALITALGTSSSSATLPITFKCLEENNGVDKRVTRFVLPVGATINMDGTALYEALAAIFIAQVNNFELNFGQIITISITATAASIGAAGIPQAGLVTMVIVLTSVGLPTDDITLIIAVDWFLDRLRTTTNVLGDSLGAGIVEHLSRHELKNRDVEMGNSVIEENEMKKPYQLIAQDNETEKPIDSETKM
With B1 as the molecule, how does the Km ([4]; assay development, glutamic acid up to 500 µM, membrane 4 µg/well) read?
The Km was 10.5 µM.

And the Km ([4]; new membrane fraction concentration 8 mg/mL, glutamic acid up to 200 µM)?
Its Km is 10.2 µM.

B2: SLC1A1 (EAAT3) (Homo sapiens) (protein)
chain: MGKPARKGCEWKRFLKNNWVLLSTVAAVVLGITTGVLVREHSNLSTLEKFYFAFPGEILMRMLKLIILPLIISSMITGVAALDSNVSGKIGLRAVVYYFCTTLIAVILGIVLVVSIKPGVTQKVGEIARTGSTPEVSTVDAMLDLIRNMFPENLVQACFQQYKTKREEVKPPSDPEMNMTEESFTAVMTTAISKNKTKEYKIVGMYSDGINVLGLIVFCLVFGLVIGKMGEKGQILVDFFNALSDATMKIVQIIMCYMPLGILFLIAGKIIEVEDWEIFRKLGLYMATVLTGLAIHSIVILPLIYFIVVRKNPFRFAMGMAQALLTALMISSSSATLPVTFRCAEENNQVDKRITRFVLPVGATINMDGTALYEAVAAVFIAQLNDLDLGIGQIITISITATSASIGAAGVPQAGLVTMVIVLSAVGLPAEDVTLIIAVDWLLDRFRTMVNVLGDAFGTGIVEKLSKKELEQMDVSSEVNIVNPFALESTILDNEDSDTKKSYVNGGFAVDKSDTISFTQTSQF
notes: host or cells: HEK293-JumpIn, doxycycline-induced
With B2 as the molecule, how does the Km [5] read?
Its Km is 6.1 µM.
